Test results taken from ChEMBL document CHEMBL1201862, “PubChem BioAssay data set” (2004).
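96-well plates; 48 h exposure; 5 concentrations. Endpoints by linear interpolation between flanking doses. Not reached: highest tested concentration assigned. GI50 = concentration required for 50% inhibition of growth.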 The source made the active and inactive calls. Cut-off read from the data, not from the text of the source: active = GI50 up to about 1.1 µM and inactive = higher.

How the values were obtained:
Assay in all cases: NCI anticancer screen, dose series, 48 h
[1] = system: 786-0
[2] = system: A498
[3] = system: ACHN
[4] = system: COLO 205
[5] = system: EKVX
[6] = system: HL-60
[7] = system: K562
[8] = system: KM12
[9] = system: M14
[10] = system: Malme-3M
[11] = system: NCI-H23
[12] = system: OVCAR-4
[13] = system: RXF 393
[14] = system: SK-MEL-2
[15] = system: UACC-257
[16] = system: UACC-62
[17] = system: HOP-62

Measured: GI50

O=C(O)CCNS(=O)(=O)c1ccc(NC(=O)c2ccccc2)cc1
inactive: [1] > 100 µM | [2] > 100 µM | [3] > 100 µM | [4] > 100 µM | [5] > 100 µM | [6] > 100 µM | [7] > 100 µM | [8] > 100 µM | [9] > 100 µM | [10] > 100 µM | [11] > 100 µM | [12] > 100 µM | [13] > 100 µM | [14] > 100 µM | [15] > 100 µM | [16] > 100 µM

CN(C)CCNC(=O)c1cccc2[nH]c(-c3cccnc3)nc12
inactive: [1] 22.9 µM | [2] 14.2 µM | [3] 16.9 µM | [4] 14.5 µM | [5] 22.8 µM | [6] 31.5 µM | [17] 18.5 µM | [7] 27.9 µM | [8] 36.5 µM | [9] 20.9 µM | [11] 18.8 µM | [12] 29.3 µM | [13] 16.9 µM | [14] 25.8 µM | [15] 18.5 µM | [16] 18.9 µM

Cn1c(=O)c2c(nc3n2CCC(=O)N3)n(C)c1=O
inactive: [1] > 100 µM | [2] > 100 µM | [3] > 100 µM | [4] > 100 µM | [5] > 100 µM | [6] > 100 µM | [17] > 100 µM | [7] > 100 µM | [8] > 100 µM | [10] > 100 µM | [11] > 100 µM | [12] > 100 µM | [13] > 100 µM | [14] > 100 µM | [15] > 100 µM | [16] > 100 µM

CN(C)c1ccc(/C=C(/C(=O)O)c2csc(-c3nc(/C(=C\c4ccc(N(C)C)cc4)C(=O)O)cs3)n2)cc1
inactive: [1] 46.2 µM | [2] > 100 µM | [3] > 100 µM | [4] 93.3 µM | [5] > 100 µM | [6] 43 µM | [17] > 100 µM | [7] 41.7 µM | [8] > 100 µM | [9] > 100 µM | [10] > 100 µM | [11] > 100 µM | [13] > 100 µM | [14] > 100 µM | [15] > 100 µM | [16] 80.9 µM

CCOC(=O)NC(=O)c1cn(C(CC)COC(=O)NCCCCCCNC(=O)OCC(CC)n2cc(C(=O)NC(=O)OCC)c(=O)[nH]c2=O)c(=O)[nH]c1=O (stereo not given)
inactive: [1] > 100 µM | [2] > 100 µM | [3] > 100 µM | [4] > 100 µM | [5] > 100 µM | [6] > 100 µM | [17] > 100 µM | [7] > 100 µM | [8] > 100 µM | [9] > 100 µM | [10] > 100 µM | [12] > 100 µM | [13] > 100 µM | [14] > 100 µM | [15] > 100 µM | [16] > 100 µM
